Test results: ChEMBL document CHEMBL3853293, “Part-1: Design, synthesis and biological evaluation of novel bromo-pyrimidine analogs as tyrosine kinase inhibitors” (Eur J Med Chem, 2016)

How the values were obtained:
[1] = Cytotoxicity against human HCT116 cells assessed as reduction in cell viability after 96 hrs by MTT assay; details: HCT-116, 96 h
[2] = Cytotoxicity against human U937 cells assessed as reduction in cell viability after 96 hrs by MTT assay; details: U-937, 96 h
[3] = Cytotoxicity against human A549 cells assessed as reduction in cell viability after 96 hrs by MTT assay; details: A549, 96 h
[4] = Cytotoxicity against human L02 cells assessed as reduction in cell viability after 96 hrs by MTT assay; format: toxicity, cell-based
[5] = Cytotoxicity against human K562 cells assessed as reduction in cell viability after 96 hrs by MTT assay; details: K562, 96 h
Bcr/Abl fusion protein = Bcr/Abl fusion protein (Homo sapiens, UniProt P00519); test: Inhibition of BRC/ABL1 (unknown origin) after 40 mins by ADP-Glo assay; format: protein assay
Sequence of Bcr/Abl fusion protein (P00519 whole entry, the tested form may be a part): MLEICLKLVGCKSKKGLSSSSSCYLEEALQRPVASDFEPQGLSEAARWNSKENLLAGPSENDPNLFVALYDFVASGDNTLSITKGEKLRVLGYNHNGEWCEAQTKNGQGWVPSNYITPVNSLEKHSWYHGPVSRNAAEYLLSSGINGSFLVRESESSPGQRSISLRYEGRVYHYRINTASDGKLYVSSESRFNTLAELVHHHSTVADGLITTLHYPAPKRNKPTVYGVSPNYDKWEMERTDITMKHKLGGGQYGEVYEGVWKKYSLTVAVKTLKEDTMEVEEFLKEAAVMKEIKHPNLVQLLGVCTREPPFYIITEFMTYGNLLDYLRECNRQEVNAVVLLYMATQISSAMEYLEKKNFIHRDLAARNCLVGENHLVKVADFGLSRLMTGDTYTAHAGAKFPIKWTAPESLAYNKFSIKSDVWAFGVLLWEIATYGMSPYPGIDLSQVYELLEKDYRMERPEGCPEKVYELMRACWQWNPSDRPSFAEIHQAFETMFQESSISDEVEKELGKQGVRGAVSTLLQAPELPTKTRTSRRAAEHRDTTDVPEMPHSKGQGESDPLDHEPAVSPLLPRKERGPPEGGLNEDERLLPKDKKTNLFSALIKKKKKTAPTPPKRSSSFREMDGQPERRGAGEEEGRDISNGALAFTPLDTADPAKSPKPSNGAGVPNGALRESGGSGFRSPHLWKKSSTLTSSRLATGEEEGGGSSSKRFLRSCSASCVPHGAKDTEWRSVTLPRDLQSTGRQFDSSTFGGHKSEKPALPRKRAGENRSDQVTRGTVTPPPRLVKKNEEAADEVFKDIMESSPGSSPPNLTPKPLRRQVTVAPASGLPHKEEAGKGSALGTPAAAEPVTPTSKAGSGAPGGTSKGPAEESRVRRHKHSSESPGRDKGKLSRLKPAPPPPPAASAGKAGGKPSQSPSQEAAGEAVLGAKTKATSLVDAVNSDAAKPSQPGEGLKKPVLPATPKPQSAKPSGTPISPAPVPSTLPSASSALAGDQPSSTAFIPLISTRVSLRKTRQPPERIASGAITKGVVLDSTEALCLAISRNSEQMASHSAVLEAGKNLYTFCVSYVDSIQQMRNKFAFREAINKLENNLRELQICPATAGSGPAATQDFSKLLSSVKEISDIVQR
Sequence of Bcr/Abl fusion protein (P11274 whole entry, further chain, the tested form may be a part): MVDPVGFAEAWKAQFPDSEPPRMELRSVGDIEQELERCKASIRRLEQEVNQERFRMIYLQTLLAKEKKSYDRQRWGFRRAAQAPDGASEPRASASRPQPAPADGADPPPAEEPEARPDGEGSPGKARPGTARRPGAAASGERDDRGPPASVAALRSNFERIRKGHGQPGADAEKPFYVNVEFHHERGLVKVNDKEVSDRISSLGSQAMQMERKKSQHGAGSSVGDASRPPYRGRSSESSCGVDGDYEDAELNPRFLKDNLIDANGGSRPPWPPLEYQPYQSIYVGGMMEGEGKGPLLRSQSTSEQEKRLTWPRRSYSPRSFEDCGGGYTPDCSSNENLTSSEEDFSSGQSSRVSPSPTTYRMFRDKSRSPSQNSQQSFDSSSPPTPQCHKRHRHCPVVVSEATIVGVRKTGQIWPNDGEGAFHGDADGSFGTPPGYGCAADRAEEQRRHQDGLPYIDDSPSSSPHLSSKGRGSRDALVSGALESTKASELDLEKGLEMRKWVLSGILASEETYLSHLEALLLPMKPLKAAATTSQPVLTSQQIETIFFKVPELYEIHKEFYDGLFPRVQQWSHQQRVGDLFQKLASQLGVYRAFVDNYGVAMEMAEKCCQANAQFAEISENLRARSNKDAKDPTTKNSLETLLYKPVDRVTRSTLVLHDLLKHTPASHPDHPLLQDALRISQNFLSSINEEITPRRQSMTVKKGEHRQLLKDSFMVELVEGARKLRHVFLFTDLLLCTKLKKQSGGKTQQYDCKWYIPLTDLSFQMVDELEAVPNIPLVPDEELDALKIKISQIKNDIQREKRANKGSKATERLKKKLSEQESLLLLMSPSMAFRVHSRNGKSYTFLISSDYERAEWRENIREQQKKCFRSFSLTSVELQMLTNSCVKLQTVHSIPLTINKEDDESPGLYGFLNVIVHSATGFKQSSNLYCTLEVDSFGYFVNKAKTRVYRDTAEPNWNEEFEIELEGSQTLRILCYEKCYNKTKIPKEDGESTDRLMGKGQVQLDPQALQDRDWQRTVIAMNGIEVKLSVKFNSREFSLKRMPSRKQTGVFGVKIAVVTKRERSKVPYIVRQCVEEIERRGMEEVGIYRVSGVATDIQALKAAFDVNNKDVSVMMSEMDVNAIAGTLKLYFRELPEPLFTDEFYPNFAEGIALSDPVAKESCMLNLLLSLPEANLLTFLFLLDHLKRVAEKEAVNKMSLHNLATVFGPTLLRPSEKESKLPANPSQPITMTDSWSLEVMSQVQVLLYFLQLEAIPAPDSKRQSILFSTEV

Compound	IC50 [1]	IC50 [2]	IC50 [3]	IC50 at 96 h [4] [µM]	IC50 [5]	IC50 (Bcr/Abl fusion protein) [µM]
Cc1ccc(S(=O)(=O)N2CCN(c3nc(N4CCOCC4)ncc3Br)CC2)c(C)c1	8.56 µM	12.8 µM	11.2 µM	> 40	9.09 µg/mL	1.69
O=C(c1cc(Cl)c(Cl)c(Cl)n1)N1CCN(c2nc(Cl)ncc2Br)CC1	–	–	–	–	–	1.44
CS(=O)(=O)N1CCN(c2nc(Cl)ncc2Br)CC1	–	–	–	–	–	0.255
Cc1ccc(S(=O)(=O)N2CCN(c3nc(N4CCOCC4)ncc3Br)CC2)cc1	7.65 µM	10.5 µM	9.23 µM	> 40	10.3 µg/mL	1.98
O=C(c1c(F)cccc1F)N1CCN(c2nc(N3CCOCC3)ncc2Br)CC1	5.56 µM	13.1 µM	7.17 µg/mL	> 40	11.2 µg/mL	0.89
O=C(c1cc(Cl)ccc1Cl)N1CCN(c2nc(Cl)ncc2Br)CC1	8.23 µM	11.3 µM	10.5 µM	> 40	9.22 µg/mL	2.28
O=S(=O)(c1ccc(F)cc1)N1CCN(c2nc(N3CCOCC3)ncc2Br)CC1	8.11 µM	11.1 µM	9.34 µM	> 40	9.32 µg/mL	4.52
CCCS(=O)(=O)N1CCN(c2nc(Cl)ncc2Br)CC1	–	–	–	–	–	> 500
O=C(c1c(F)cccc1F)N1CCN(c2nc(Cl)ncc2Br)CC1	4.97 µg/mL	12.4 µM	12.6 µM	> 40	10.2 µg/mL	2.65
O=S(=O)(c1ccc(F)cc1)N1CCN(c2nc(Cl)ncc2Br)CC1	–	–	–	–	–	122
Cc1noc(C)c1S(=O)(=O)N1CCN(c2nc(Cl)ncc2Br)CC1	–	–	–	–	–	0.56
O=C(c1ccc(C(F)(F)F)cc1)N1CCN(c2nc(Cl)ncc2Br)CC1	4.92 µg/mL	7.12 µg/mL	8.23 µg/mL	> 40	10.3 µg/mL	0.019
Cc1noc(C)c1S(=O)(=O)N1CCN(c2nc(N3CCOCC3)ncc2Br)CC1	8.34 µM	11.7 µM	10.5 µM	> 40	9.45 µg/mL	> 500
O=S(=O)(c1ccc(-c2ccccc2)cc1)N1CCN(c2nc(Cl)ncc2Br)CC1	–	–	–	–	–	0.64
O=S(=O)(c1cc(C(F)(F)F)cc(C(F)(F)F)c1)N1CCN(c2nc(Cl)ncc2Br)CC1	–	–	–	–	–	2.25
O=S(=O)(C1CC1)N1CCN(c2nc(Cl)ncc2Br)CC1	–	–	–	–	–	> 500
CS(=O)(=O)N1CCN(c2nc(N3CCOCC3)ncc2Br)CC1	8.11 µM	11.6 µM	9.71 µM	> 40	12 µM	–
O=C(c1cc(I)ccc1Cl)N1CCN(c2nc(Cl)ncc2Br)CC1	6.51 µM	12.2 µM	12.2 µM	> 40	8.67 µg/mL	16.2

Compound	IC50 [1]	IC50 [2]	IC50 [3]	IC50 at 96 h [4] [µM]	IC50 [5]	IC50 (Bcr/Abl fusion protein) [µM]
CC(C)(C)c1ccc(S(=O)(=O)N2CCN(c3nc(N4CCOCC4)ncc3Br)CC2)cc1	8.67 µM	12.8 µM	12.4 µM	> 40	9.09 µg/mL	1.15
O=[N+]([O-])c1cc(C(F)(F)F)ccc1S(=O)(=O)N1CCN(c2nc(N3CCOCC3)ncc2Br)CC1	4.02 µg/mL	7.14 µg/mL	6.65 µg/mL	> 40	9.65 µg/mL	0.0206
Cc1nc(Nc2ncc(C(=O)Nc3c(C)cccc3Cl)s2)cc(N2CCN(CCO)CC2)n1 [DASATINIB]	5.23 µM	10.2 µM	8.37 µM	> 40	12 µM	–
N#Cc1ccc(S(=O)(=O)N2CCN(c3nc(N4CCOCC4)ncc3Br)CC2)cc1	8.33 µM	12.2 µM	12.4 µM	> 40	10.5 µg/mL	> 500
O=C(c1ccc(C(F)(F)F)cc1)N1CCN(c2nc(N3CCOCC3)ncc2Br)CC1	4.45 µg/mL	9.88 µg/mL	6.44 µg/mL	> 40	9.17 µg/mL	0.024
O=S(=O)(C1CC1)N1CCN(c2nc(N3CCOCC3)ncc2Br)CC1	8.11 µM	12.1 µM	12 µM	> 40	9.12 µg/mL	0.22
Cc1ccc(S(=O)(=O)N2CCN(c3nc(Cl)ncc3Br)CC2)cc1	–	–	–	–	–	58
O=[N+]([O-])c1cc(C(F)(F)F)ccc1S(=O)(=O)N1CCN(c2nc(Cl)ncc2Br)CC1	–	–	–	–	–	0.0226
O=S(=O)(c1ccc(-c2ccccc2)cc1)N1CCN(c2nc(N3CCOCC3)ncc2Br)CC1	9.12 µM	11.2 µM	10.1 µM	> 40	9.32 µg/mL	0.32
O=C(c1ccc(F)cc1)N1CCN(c2nc(Cl)ncc2Br)CC1	8.11 µM	9.12 µg/mL	7.34 µg/mL	> 40	8.82 µg/mL	0.019
O=C(c1ccc(Cl)cc1[N+](=O)[O-])N1CCN(c2nc(N3CCOCC3)ncc2Br)CC1	6.43 µM	13.1 µM	9.76 µM	> 40	13.2 µM	> 500
O=S(=O)(c1ccc(C(F)(F)F)cc1)N1CCN(c2nc(N3CCOCC3)ncc2Br)CC1	4.32 µg/mL	7.54 µg/mL	6.25 µg/mL	> 40	9.95 µg/mL	0.019
O=S(=O)(c1cc(Cl)sc1Cl)N1CCN(c2nc(N3CCOCC3)ncc2Br)CC1	9.23 µM	13.6 µM	9.56 µM	> 40	10.1 µg/mL	> 500
O=S(=O)(c1ccc2ccccc2c1)N1CCN(c2nc(N3CCOCC3)ncc2Br)CC1	9.56 µM	15.1 µM	8.23 µg/mL	> 40	10.3 µg/mL	0.44
O=C(c1ccc(F)cc1)N1CCN(c2nc(N3CCOCC3)ncc2Br)CC1	4.56 µg/mL	9.89 µg/mL	8.67 µM	> 40	9.45 µg/mL	0.024
O=C(c1ccc(Cl)cc1[N+](=O)[O-])N1CCN(c2nc(Cl)ncc2Br)CC1	7.34 µM	14.3 µM	12.1 µM	> 40	10.2 µg/mL	2.58
COC(=O)NC(C(=O)N1CCN(c2nc(Cl)ncc2Br)CC1)C(C)C (stereo not drawn)	–	–	–	–	–	0.385
